{
  "source": "ChEMBL document CHEMBL2074042",
  "about": "“beta-lactam antibiotics as substrates for OCTN2, an organic cation/carnitine transporter” (J Biol Chem, 2000)",
  "target": "T1, Organic cation/carnitine transporter 2 (Homo sapiens, UniProt O76082)",
  "T1 sequence (O76082 whole entry)": "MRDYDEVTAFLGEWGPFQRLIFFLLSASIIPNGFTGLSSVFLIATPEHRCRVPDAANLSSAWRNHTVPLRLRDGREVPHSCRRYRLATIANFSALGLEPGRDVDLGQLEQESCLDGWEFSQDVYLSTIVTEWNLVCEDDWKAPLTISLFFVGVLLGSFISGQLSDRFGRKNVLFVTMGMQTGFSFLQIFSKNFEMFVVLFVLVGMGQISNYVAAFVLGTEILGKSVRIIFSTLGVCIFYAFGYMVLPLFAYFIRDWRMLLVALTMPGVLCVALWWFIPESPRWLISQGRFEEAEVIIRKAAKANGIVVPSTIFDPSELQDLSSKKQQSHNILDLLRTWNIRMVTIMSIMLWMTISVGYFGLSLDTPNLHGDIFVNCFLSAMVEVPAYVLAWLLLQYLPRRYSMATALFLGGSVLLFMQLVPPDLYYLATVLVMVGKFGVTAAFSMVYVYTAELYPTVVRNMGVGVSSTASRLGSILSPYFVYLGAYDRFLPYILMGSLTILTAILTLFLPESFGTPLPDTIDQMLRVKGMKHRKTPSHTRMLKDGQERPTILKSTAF",
  "test": "TP_TRANSPORTER: inhibition of Carnitine uptake (Carnitine: 0.02 uM, PCG: 2500 uM) in OCTN2-expressing HeLa cells",
  "type": "functional, cell-based",
  "data": [
    {"smiles": "CC1(C)S[C@@H]2[C@H](NC(=O)Cc3ccccc3)C(=O)N2[C@H]1C(=O)O", "note": "[PENICILLIN G]", "values": [
      {"measurement": "Activity", "value": "is not an inhibitor [-]"}
    ]}
  ]
}
